Reference: patent US20260132132A1, “3A,4,5,6-TETRAHYDRO-1 H-PYRAZOLO[3,4-C]PYRIDIN-7(7AH)-ONE DERIVATIVES AS FACTOR XIIA INHIBITORS” (KALVISTA PHARMACEUTICALS LIMITED, priority 2022, published 2026)

What was measured:
[1] = target: T1, Human Factor XIIa (hFXIIa) (Homo sapiens, UniProt P00748); test: Determination of Human Factor XIIa (hFXIIa) inhibition, fluorogenic substrate IC50 assay; assay type: biochemical; details: fluorogenic substrate H-DPro-Phe-Arg-AFC at Km, 25° C., read-out: Human FXIIa IC50
T1 construct: purchased Enzyme Research Laboratories
T1 sequence (P00748 373-615 limits assumed): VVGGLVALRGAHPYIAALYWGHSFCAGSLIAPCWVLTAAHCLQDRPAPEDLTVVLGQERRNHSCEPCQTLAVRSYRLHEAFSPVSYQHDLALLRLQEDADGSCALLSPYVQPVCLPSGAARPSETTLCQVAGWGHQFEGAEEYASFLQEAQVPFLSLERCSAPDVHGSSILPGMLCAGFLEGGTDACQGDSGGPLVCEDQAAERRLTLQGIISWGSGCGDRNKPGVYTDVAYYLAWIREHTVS
T1 sequence (P00748 20-372 partner limits assumed): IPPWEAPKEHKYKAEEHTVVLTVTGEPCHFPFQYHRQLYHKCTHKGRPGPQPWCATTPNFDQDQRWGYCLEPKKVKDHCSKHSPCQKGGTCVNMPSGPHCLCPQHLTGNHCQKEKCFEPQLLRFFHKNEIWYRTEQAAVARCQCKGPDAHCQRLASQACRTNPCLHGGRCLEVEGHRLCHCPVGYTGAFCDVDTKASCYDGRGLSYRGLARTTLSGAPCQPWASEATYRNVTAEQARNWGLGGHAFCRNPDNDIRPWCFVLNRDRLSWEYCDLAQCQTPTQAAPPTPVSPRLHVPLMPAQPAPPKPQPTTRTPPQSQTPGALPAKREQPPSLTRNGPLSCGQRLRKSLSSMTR
Method: Determination of Human Factor XIIa (hFXIIa) inhibition
The Km for the cleavage of the substrate by hFXIIa was determined by standard transformation of the Michaelis-Menten equation, with subsequent inhibition assays performed at substrate Km concentration.

[2] = target: FXa (Homo sapiens, UniProt P00742); test: Related protease inhibition: FXa, fluorogenic substrate; assay type: biochemical; details: fluorogenic substrate at Km, 25° C.; H1-H3 = % activity at 40 μM
Method: Human serine protease enzyme Plasma Kallikrein, KLK1, FXa, Plasmin, Thrombin and Trypsin were assayed for enzymatic activity using an appropriate fluorogenic substrate at Km concentration, FXIa at fixed substrate concentration of 100 μM and various concentrations of the test compound.

FXa, sequence (P00742 235-488 limits assumed): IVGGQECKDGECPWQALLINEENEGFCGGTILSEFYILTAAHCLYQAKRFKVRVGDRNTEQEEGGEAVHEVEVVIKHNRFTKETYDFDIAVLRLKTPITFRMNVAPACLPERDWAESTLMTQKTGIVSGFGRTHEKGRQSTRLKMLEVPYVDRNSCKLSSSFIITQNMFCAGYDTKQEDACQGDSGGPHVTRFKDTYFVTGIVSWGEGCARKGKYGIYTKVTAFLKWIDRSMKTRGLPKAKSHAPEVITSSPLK
FXa, sequence (P00742 41-179 partner limits assumed): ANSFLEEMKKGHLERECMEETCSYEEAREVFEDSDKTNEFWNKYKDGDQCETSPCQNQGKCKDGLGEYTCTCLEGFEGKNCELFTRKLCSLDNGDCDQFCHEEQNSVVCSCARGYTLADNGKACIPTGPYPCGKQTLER

Row | IC50 [1] [µM] | IC50 [2] [µM] | Compound
1 | 0.01 to 0.1 | 10 to 40 | Cc1ncccc1CNC(=O)c1nn(-c2cccc(Cl)c2)c2c1CCN(c1ccc3c(c1)CN(CCO)CC3)C2=O [Example 1111, 1-(3-chlorophenyl)-6-(2-(2-hydroxyethyl)-1,2,3,4-tetrahydroisoquinolin-7-yl)-N-((2-methylpyridin-3-yl)methyl)-7-oxo-4,5,6,7-tetrahydro-1H-pyrazolo[3,4-c]pyridine-3-carboxamide]
2 | 0.01 to 0.1 | 10 to 40 | Cn1ccc(CNC(=O)c2nn(-c3cccc(Cl)c3)c3c2CCN(c2ccc4c(c2)CN(CCO)CC4)C3=O)n1 [Example 1132, 1-(3-chlorophenyl)-6-(2-(2-hydroxyethyl)-1,2,3,4-tetrahydroisoquinolin-7-yl)-N-((1-methyl-1H-pyrazol-3-yl)methyl)-7-oxo-4,5,6,7-tetrahydro-1H-pyrazolo[3,4-c]pyridine-3-carboxamide]
3 | 0.1 to 0.3 | > 40 | Cc1ncc(CNC(=O)c2nn(-c3cccc(Cl)c3)c3c2CCN(c2ccc4c(c2)C(=O)N(C)CC4)C3=O)s1 [Example 1193, 1-(3-chlorophenyl)-6-(2-methyl-1-oxo-1,2,3,4-tetrahydroisoquinolin-7-yl)-N-((2-methylthiazol-5-yl)methyl)-7-oxo-4,5,6,7-tetrahydro-1H-pyrazolo[3,4-c]pyridine-3-carboxamide]
4 | 0.01 to 0.1 | > 40 | Cc1ccncc1CNC(=O)c1nn(-c2cccc(Cl)c2)c2c1CCN(c1ccc3c(c1)C(=O)N(C)CC3)C2=O [Example 1159, 1-(3-Chlorophenyl)-6-(2-methyl-1-oxo-1,2,3,4-tetrahydroisoquinolin-7-yl)-N-((4-methylpyridin-3-yl)methyl)-7-oxo-4,5,6,7-tetrahydro-1H-pyrazolo[3,4-c]pyridine-3-carboxamide]
5 | 0.3 to 1 | > 40 | O=C(NCC1CC1)c1nn(-c2cccc(Cl)c2)c2c1CCN(c1ccc3c(c1)CN(C1COC1)CC3)C2=O [Example 1032, 1-(3-chlorophenyl)-N-(cyclopropylmethyl)-6-(2-(oxetan-3-yl)-1,2,3,4-tetrahydroisoquinolin-7-yl)-7-oxo-4,5,6,7-tetrahydro-1H-pyrazolo[3,4-c]pyridine-3-carboxamide]
6 | 3 to 10 | > 40 | O=C(NCC1CC1)c1nn(-c2cccc(Cl)c2)c2c1CCN(c1ccc3c(c1)CN(C(=O)CO)CC3)C2=O [Example 1114, 1-(3-chlorophenyl)-N-(cyclopropylmethyl)-6-(2-(2-hydroxyacetyl)-1,2,3,4-tetrahydroisoquinolin-7-yl)-7-oxo-4,5,6,7-tetrahydro-1H-pyrazolo[3,4-c]pyridine-3-carboxamide]
7 | 0.1 to 0.3 | > 40 | CC1(C)OCCC1NC(=O)c1nn(-c2cccc(Cl)c2)c2c1CCN(c1ccc3c(c1)CN(CCO)CC3)C2=O (stereo not shown) [Example 1112, 1-(3-chlorophenyl)-N-(2,2-dimethyltetrahydrofuran-3-yl)-6-(2-(2-hydroxyethyl)-1,2,3,4-tetrahydroisoquinolin-7-yl)-7-oxo-4,5,6,7-tetrahydro-1H-pyrazolo[3,4-c]pyridine-3-carboxamide]
8 | 0.01 to 0.1 | 3 to 10 | CN1CCc2ccc(N3CCc4c(C(=O)NCc5ccccc5)nn(-c5cccc(Cl)c5)c4C3=O)cc2C1 [Example 1005, N-benzyl-1-(3-chlorophenyl)-6-(2-methyl-1,2,3,4-tetrahydroisoquinolin-7-yl)-7-oxo-4,5,6,7-tetrahydro-1H-pyrazolo[3,4-c]pyridine-3-carboxamide]
9 | 0.1 to 0.3 | > 40 | CC(=O)N1CCc2ccc(N3CCc4c(C(=O)NCc5cnccc5C)nn(-c5cccc(Cl)c5)c4C3=O)cc21 [Example 1188, 6-(1-acetylindolin-6-yl)-1-(3-chlorophenyl)-N-((4-methylpyridin-3-yl)methyl)-7-oxo-4,5,6,7-tetrahydro-1H-pyrazolo[3,4-c]pyridine-3-carboxamide]
10 | 0.1 to 0.3 | 10 to 40 | O=C(NC1CCOCC1)c1nn(-c2cccc(Cl)c2)c2c1CCN(c1ccc3c(c1)CN(CCO)CC3)C2=O [Example 1076, 1-(3-chlorophenyl)-6-(2-(2-hydroxyethyl)-1,2,3,4-tetrahydroisoquinolin-7-yl)-7-oxo-N-(tetrahydro-2H-pyran-4-yl)-4,5,6,7-tetrahydro-1H-pyrazolo[3,4-c]pyridine-3-carboxamide]

Further lines, the compound ahead of its results:

Row | Compound | IC50 [1] [µM] | IC50 [2] [µM]
11 | CN1CCCc2ccc(N3CCc4c(C(=O)NCC5CC5)nn(-c5cccc(Cl)c5)c4C3=O)cc2C1=O [Example 1239, 1-(3-chlorophenyl)-N-(cyclopropylmethyl)-6-(2-methyl-1-oxo-2,3,4,5-tetrahydro-1H-benzo[c]azepin-8-yl)-7-oxo-4,5,6,7-tetrahydro-1H-pyrazolo[3,4-c]pyridine-3-carboxamide] | 0.1 to 0.3 | 10 to 40
12 | CN1CCc2ccc(N3CCc4c(C#N)nn(-c5cccc(Cl)c5)c4C3=O)cc2C1=O [Example 1388, 1-(3-chlorophenyl)-6-(2-methyl-1-oxo-1,2,3,4-tetrahydroisoquinolin-7-yl)-7-oxo-4,5,6,7-tetrahydro-1H-pyrazolo[3,4-c]pyridine-3-carbonitrile] | 0.3 to 1 | 1 to 3
13 | Cc1cc(CNC(=O)c2nn(-c3cccc(Cl)c3)c3c2CCN(c2ccc4c(c2)C(=O)N(CCO)[C@@H](C)CO4)C3=O)n[nH]1 [Example 1380, (S)-1-(3-chlorophenyl)-6-(4-(2-hydroxyethyl)-3-methyl-5-oxo-2,3,4,5-tetrahydrobenzo[f][1,4]oxazepin-7-yl)-N-((5-methyl-1H-pyrazol-3-yl)methyl)-7-oxo-4,5,6,7-tetrahydro-1H-pyrazolo[3,4-c]pyridine-3-carboxamide] | 0.3 to 1 | 10 to 40
14 | CCNC(=O)c1nn(-c2cccc(Cl)c2)c2c1CCN(c1cccc(N3CCC4(CC4)C3=O)c1)C2=O [Example 1400, 1-(3-chlorophenyl)-N-ethyl-7-oxo-6-(3-(4-oxo-5-azaspiro[2.4]heptan-5-yl)phenyl)-4,5,6,7-tetrahydro-1H-pyrazolo[3,4-c]pyridine-3-carboxamide] | 1 to 3 | > 40
15 | CCNC(=O)c1nn(-c2cccc(Cl)c2)c2c1CCN(c1cccc(N3C(=O)CC[C@@H]3C)c1)C2=O [Example 1398, (S)-1-(3-chlorophenyl)-N-ethyl-6-(3-(2-methyl-5-oxopyrrolidin-1-yl)phenyl)-7-oxo-4,5,6,7-tetrahydro-1H-pyrazolo[3,4-c]pyridine-3-carboxamide] | 10 to 40 | > 40
16 | Cc1ccncc1CNC(=O)c1nn(-c2cccc(Cl)c2)c2c1CCN(c1ccc3c(c1)C(=O)N(CCCO)CCO3)C2=O [Example 1376, 1-(3-chlorophenyl)-6-(4-(3-hydroxypropyl)-5-oxo-2,3,4,5-tetrahydrobenzo[f][1,4]oxazepin-7-yl)-N-((4-methylpyridin-3-yl)methyl)-7-oxo-4,5,6,7-tetrahydro-1H-pyrazolo[3,4-c]pyridine-3-carboxamide] | 0.01 to 0.1 | 3 to 10
17 | Cc1ccncc1CNC(=O)c1nn(-c2cccc(Cl)c2)c2c1CCN(c1ccc3c(c1)CN(CCO)C[C@@H]3C)C2=O [Example 1148, (R)-1-(3-Chlorophenyl)-6-(2-(2-hydroxyethyl)-4-methyl-1,2,3,4-tetrahydroisoquinolin-7-yl)-N-((4-methylpyridin-3-yl)methyl)-7-oxo-4,5,6,7-tetrahydro-1H-pyrazolo[3,4-c]pyridine-3-carboxamide] | 0.1 to 0.3 | 10 to 40
18 | CCNC(=O)c1nn(-c2cccc(Cl)c2)c2c1CCN(c1cccc(N3CCOC3=O)c1)C2=O [Example 1362, 1-(3-chlorophenyl)-N-ethyl-7-oxo-6-(3-(2-oxooxazolidin-3-yl)phenyl)-4,5,6,7-tetrahydro-1H-pyrazolo[3,4-c]pyridine-3-carboxamide] | 3 to 10 | > 40
19 | Cc1ccncc1C(C)NC(=O)c1nn(-c2cccc(Cl)c2)c2c1CCN(c1ccc3c(c1)C(=O)N(CCO)CC3)C2=O (stereo not shown) [Example 1327, 1-(3-chlorophenyl)-6-(2-(2-hydroxyethyl)-1-oxo-1,2,3,4-tetrahydroisoquinolin-7-yl)-N-(1-(4-methylpyridin-3-yl)ethyl)-7-oxo-4,5,6,7-tetrahydro-1H-pyrazolo[3,4-c]pyridine-3-carboxamide] | 0.1 to 0.3 | > 40
20 | Cc1cc(CNC(=O)c2nn(-c3cccc(Cl)c3)c3c2CCN(c2ccc4c(c2)C(=O)N(C)CC(=O)N4C)C3=O)nn1C [Example 1372, 1-(3-chlorophenyl)-N-((1,5-dimethyl-1H-pyrazol-3-yl)methyl)-6-(1,4-dimethyl-2,5-dioxo-2,3,4,5-tetrahydro-1H-benzo[e][1,4]diazepin-7-yl)-7-oxo-4,5,6,7-tetrahydro-1H-pyrazolo[3,4-c]pyridine-3-carboxamide] | 0.3 to 1 | 10 to 40
